Measurements reported in patent publication US20150140020A1, “PHARMACEUTICAL COMPOSITION FOR TREATING ADVERSE REACTIONS DUE TO ADMINISTRATION OF SPIEGELMERS” (Freie Universitaet Berlin, priority 2009, published 2015).
[L-RNA-N] = L-ribonucleotide (mirror-image RNA) (N: the base); {FAM} = fluorescein label

Assays:
Type in all cases: biochemical
[1] = tested on: L-target (Seq-ID 1 RNA with L-nucleotides); experiment: Cleavage assay: L-target with D-ribozyme; conditions: FIG. 2; MgCl2 0-25 mM; 0.2 μM target with 2 μM ribozyme
Description: (§1) The activities of L-ribozymes and D-ribozymes were measured in various conditions. The basic conditions were as follows. […] in 50 mM Tris-HCl buffer, pH 7.5, at 20° C. for 2 hours (ribozymes/target ratio therefore 10:1, 1:1 and 1:10). Before the reaction, target RNA and ribozyme were denatured for 2 minutes at 70° C. and cooled slowly (1° C./min) in the heating unit to 25° C. The influence of the Mg^2+ ions at concentration from 0.1 to 25 mM was investigated. Cleavage products were separated on 20% polyacrylamide gel electrophoresis in the presence of 8 M urea in 0.09 M Tris-borate buffer, pH 8.3. The fluorescence was analyzed on Phosphoimager Fuji Film FLA 5100. The data were obtained with the program Fuji Analysis Program. Diagrams were prepared with Excel.
(§2) The following were prepared as target sequences by way of contract synthesis by the company ChemGenes Corporation, Wilmington, USA: • Seq-ID 1: 5′-FAM-ACAGUCGGUCGCC-3′ (RNA, both with D-nucleotides and with L-nucleotides) and • Seq-ID 2: 5′-FAM-ACAGTCGGTCGCC-3′ (DNA, both with D-nucleotides and with L-nucleotides).
All synthesis products were labeled with fluorescein at the 5′-end. […]

[2] = tested on: D-target (Seq-ID 1 RNA with D-nucleotides); experiment: Cleavage assay: D-target with D-ribozyme; conditions: FIG. 4B; MgCl2 1-25 mM; 10-fold ribozyme excess
Description: as §1, §2
(§3) All synthesis products were labeled with fluorescein at the 5′-end.

[3] = tested on: D-target (Seq-ID 1 RNA with D-nucleotides); experiment: Cleavage assay: D-target with L-ribozyme
Description: as §1, §2, §3
C is the control (L-target+L-ribozyme), tracks 1 to 5 are the various MgCl2 concentrations given in the diagram (0-25 mM) for target without ribozyme, tracks 6 to 9 0.2 μM target with 2 μM ribozyme.

L-target = experiment: Cleavage of L-target by L-ribozyme in human serum; conditions: FIG. 12; conditions of human serum
[4] = tested on: L-target (Seq-ID 1 RNA with L-nucleotides); experiment: Cleavage assay: L-target with L-ribozyme
Description: as §1, §2, §3

Substance | cleavage of L-target by D-ribozyme [1] | proportion of cleavage products of D-target with D-ribozyme as a function of MgCl2 concentration [2] | cleavage of D-target by L-ribozyme ([3]; FIG. 2, MgCl2 0-25 mM, 0.2 μM target with 2 μM ribozyme) | proportion of cleavage products of the D-target by L-ribozyme as a function of MgCl2 concentration ([3]; FIG. 2C, increasing Mg concentration) | proportion of cleavage products of the D-target by L-ribozyme over time ([3]; FIG. 3, 10 mM MgCl2, times 0 to 256 min, compared with L-target/D-ribozyme) | cleavage of L-target by L-ribozyme in human serum (L-target) | proportion of cleavage products of L-target with L-ribozyme as a function of MgCl2 concentration ([4]; FIG. 4B, MgCl2 1-25 mM, 10-fold ribozyme excess) | cleavage of L-target by L-ribozyme ([4]; FIGS. 4 to 11, all usual conditions (0.1-25 mM MgCl2, ribozyme excess to deficit)) | turnover rates of L-ribozyme with L-target ([4]; FIGS. 4 to 11, relative to D-ribozyme with D-target)
5′-FAM-GGCGACCCUGAUGAGGCCGAAAGGCCGAAACUGU-3′ (RNA, 5' {FAM}, backbone not given here) [D-ribozyme] | does not cleave | increases with increasing Mg concentration |  |  |  |  |  |  | 
5′-FAM-GGCGACCCUGAUGAGGCCGAAAGGCCGAAACUGU-3′ (all [L-RNA-N], 5' {FAM}, backbone not given here) [L-ribozyme] |  |  | a notable reaction certainly occurs | increases with increasing Mg concentration | increases with time | functions effectively | increases with increasing Mg concentration | effectively cuts | at least correspond to those of a D-ribozyme with a D-target
